Activity calls are given as the source filed them.
Legend:
[1] = molecular target: Luciferin 4-monooxygenase (Photinus pyralis, UniProt P08659); experiment: inhibition of purified Photinus pyralis luciferase – biochemical, luminescence, dose response (AID 1891)
[2] = Luminescence Cell-Based Dose Confirmation HTS to Identify Inhibitors of Platelet Dense Granule Release. [Related pubchem assays: 1663 (Primary HTS), 1678 (Summary of Project)]; format: functional
HeLa = experiment: ATP-based viability loss in HeLa cells – cell-based, CellTiter-Glo luminescence, cherry-pick samples, cytotoxicity control for MITF activator project, dose response (AID 540259); format: functional; settings: Homo sapiens
[3] = molecular target: T1, RNA-binding protein pos-1 (Caenorhabditis elegans, UniProt G5EF15); experiment: disruptors of C. elegans POS-1 RNA interaction – biochemical, fluorescence polarization, dose response (AID 1964);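 also: purified POS-1 fused to maltose binding protein made in E. coli; potency of compounds blocking POS-1 binding to fluorescent RNA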
T1 sequence (G5EF15 whole entry): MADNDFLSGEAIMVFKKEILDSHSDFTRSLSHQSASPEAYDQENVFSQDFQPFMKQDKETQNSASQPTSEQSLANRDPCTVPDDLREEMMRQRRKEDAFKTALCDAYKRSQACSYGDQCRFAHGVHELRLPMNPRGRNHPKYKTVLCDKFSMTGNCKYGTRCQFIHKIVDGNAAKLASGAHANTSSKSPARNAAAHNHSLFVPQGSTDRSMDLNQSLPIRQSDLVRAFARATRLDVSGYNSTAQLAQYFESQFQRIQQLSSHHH

[4] = molecular target: T2, Zinc finger protein mex-5 (Caenorhabditis elegans, UniProt Q9XUB2); experiment: potency of MEX-5 RNA-binding blockers – biochemical, C. elegans, fluorescence polarization, dose response (AID 1960)
T2 sequence (Q9XUB2 whole entry): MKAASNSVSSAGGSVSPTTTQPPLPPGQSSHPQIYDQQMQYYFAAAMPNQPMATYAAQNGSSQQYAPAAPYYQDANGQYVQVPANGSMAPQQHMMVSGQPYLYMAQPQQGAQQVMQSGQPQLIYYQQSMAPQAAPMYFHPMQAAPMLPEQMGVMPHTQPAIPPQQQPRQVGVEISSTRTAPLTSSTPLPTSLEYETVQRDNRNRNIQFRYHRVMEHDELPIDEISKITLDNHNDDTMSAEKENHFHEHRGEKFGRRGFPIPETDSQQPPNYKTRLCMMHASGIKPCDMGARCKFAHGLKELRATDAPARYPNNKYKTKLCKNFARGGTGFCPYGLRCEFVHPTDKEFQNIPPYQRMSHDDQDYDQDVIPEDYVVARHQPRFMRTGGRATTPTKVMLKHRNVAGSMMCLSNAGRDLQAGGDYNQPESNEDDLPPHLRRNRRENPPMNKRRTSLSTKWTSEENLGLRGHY

[5] = molecular target: T3, Polyadenylate-binding protein 1 (Homo sapiens, UniProt P11940); experiment: MLLE binding blockers, Cy5 peptide tracer – biochemical, fluorescence polarization, Cy5-PAM2 peptide, secondary, miRNA deadenylation inhibitor project, dose response (AID 602260); format: functional; settings: read-out: IC50_Mean
T3 sequence (P11940 whole entry, the tested form may be a part): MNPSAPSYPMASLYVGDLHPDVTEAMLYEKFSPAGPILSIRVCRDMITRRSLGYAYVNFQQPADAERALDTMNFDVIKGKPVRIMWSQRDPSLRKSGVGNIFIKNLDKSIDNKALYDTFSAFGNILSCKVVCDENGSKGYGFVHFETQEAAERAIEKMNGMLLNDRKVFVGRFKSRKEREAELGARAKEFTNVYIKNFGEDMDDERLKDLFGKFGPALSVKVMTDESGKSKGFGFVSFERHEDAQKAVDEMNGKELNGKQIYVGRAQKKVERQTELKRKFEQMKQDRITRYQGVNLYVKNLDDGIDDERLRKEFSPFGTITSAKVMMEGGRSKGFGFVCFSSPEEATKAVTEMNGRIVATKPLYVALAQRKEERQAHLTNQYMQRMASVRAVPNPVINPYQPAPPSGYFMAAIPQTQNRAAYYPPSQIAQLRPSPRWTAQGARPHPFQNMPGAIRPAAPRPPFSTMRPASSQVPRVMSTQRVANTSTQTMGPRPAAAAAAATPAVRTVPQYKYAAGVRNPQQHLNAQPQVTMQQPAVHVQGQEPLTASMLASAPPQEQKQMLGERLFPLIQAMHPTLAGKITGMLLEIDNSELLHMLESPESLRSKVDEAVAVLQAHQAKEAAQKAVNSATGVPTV

[6] = molecular target: T3, Polyadenylate-binding protein 1; experiment: MLLE domain peptide-binding blockers, IC50 – biochemical, fluorescence polarization, FITC-PAM2 peptide, dose response (AID 602259); format: functional; settings: read-out: IC50_Mean
[7] = molecular target: T4, Short transient receptor potential channel 4 (Mus musculus, UniProt Q9QUQ5); experiment: block of DAMGO-driven TRPC4 calcium entry – cell-based, HEK293 TRPC4/mu-opioid, Fluo-4 calcium, dose response (AID 434942); format: functional;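 also: potency of inhibitors blocking the TRPC4 calcium response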
T4 sequence (Q9QUQ5 whole entry): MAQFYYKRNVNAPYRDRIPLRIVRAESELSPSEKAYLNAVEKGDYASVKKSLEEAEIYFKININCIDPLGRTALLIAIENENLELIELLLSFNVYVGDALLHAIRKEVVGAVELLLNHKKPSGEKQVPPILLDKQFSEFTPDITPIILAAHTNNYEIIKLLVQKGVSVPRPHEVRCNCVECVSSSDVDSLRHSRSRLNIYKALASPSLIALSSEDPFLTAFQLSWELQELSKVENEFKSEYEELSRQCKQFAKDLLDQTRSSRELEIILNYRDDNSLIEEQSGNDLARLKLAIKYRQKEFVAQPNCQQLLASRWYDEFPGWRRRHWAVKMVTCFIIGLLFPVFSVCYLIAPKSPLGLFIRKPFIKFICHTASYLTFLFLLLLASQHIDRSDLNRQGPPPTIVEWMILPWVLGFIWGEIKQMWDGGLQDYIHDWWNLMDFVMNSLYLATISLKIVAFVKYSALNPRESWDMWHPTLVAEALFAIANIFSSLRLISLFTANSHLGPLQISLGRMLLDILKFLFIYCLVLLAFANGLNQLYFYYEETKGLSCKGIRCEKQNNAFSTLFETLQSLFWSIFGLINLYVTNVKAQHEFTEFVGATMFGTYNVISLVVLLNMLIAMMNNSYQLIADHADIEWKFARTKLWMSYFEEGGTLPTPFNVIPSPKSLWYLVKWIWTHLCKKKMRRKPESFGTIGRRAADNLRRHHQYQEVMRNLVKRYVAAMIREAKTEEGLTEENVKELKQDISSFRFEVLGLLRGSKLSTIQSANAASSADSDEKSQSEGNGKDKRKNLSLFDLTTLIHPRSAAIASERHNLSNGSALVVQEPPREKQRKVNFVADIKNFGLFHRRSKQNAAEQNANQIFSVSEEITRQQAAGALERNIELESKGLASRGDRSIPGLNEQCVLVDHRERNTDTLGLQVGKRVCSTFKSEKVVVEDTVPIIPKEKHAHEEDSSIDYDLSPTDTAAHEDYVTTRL

[8] = molecular target: T5, Rac GTPase-activating protein 1 (Homo sapiens, UniProt Q9H0H5); experiment: blockers of MgcRacGAP-driven Rac1 GTP hydrolysis – biochemical, ADP Hunter fluorescence, primary and confirmatory, confirmation (AID 624330); format: functional
T5 sequence (Q9H0H5 whole entry): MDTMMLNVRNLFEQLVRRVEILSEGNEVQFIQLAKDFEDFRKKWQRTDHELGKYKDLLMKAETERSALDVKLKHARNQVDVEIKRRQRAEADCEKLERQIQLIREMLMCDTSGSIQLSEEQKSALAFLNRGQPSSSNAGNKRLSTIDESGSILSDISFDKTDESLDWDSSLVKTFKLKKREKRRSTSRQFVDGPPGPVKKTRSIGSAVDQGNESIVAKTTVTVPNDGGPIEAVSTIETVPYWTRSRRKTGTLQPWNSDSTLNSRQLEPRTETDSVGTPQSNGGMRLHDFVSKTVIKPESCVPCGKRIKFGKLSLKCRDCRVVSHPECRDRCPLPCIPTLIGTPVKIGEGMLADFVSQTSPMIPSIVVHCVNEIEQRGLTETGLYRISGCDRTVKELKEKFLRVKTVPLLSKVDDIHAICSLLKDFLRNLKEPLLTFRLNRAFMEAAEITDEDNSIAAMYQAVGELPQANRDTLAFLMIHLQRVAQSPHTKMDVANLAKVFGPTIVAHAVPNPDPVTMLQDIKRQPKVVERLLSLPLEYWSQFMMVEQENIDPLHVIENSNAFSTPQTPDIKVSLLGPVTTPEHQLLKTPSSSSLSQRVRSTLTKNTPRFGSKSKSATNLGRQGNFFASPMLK

Cytochrome P450 2C19 = Cytochrome P450 2C19 (Homo sapiens, UniProt P33261); experiment: Cytochrome panel assay with activity outcomes. Panel member name: p450-cyp2c19 Compounds with AC50 equal or less than 10 uM are considered active; format: functional; settings: read-out: AC50
Chain of Cytochrome P450 2C19 (P33261 whole entry): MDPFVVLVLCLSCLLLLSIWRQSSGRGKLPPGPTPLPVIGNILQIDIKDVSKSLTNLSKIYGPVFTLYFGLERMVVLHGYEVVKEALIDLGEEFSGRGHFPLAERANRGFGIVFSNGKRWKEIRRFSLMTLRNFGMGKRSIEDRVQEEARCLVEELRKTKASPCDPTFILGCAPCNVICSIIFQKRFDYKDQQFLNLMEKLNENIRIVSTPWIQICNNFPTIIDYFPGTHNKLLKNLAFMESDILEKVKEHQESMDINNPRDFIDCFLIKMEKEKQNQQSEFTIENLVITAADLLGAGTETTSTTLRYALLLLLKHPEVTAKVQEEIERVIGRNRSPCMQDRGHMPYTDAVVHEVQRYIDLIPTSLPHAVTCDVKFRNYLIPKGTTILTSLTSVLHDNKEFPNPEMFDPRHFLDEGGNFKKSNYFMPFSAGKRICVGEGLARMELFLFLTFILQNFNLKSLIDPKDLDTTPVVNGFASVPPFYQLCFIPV

Cytochrome P450 2C9 = Cytochrome P450 2C9 (Homo sapiens, UniProt P11712)
Chain of Cytochrome P450 2C9 (P11712 whole entry): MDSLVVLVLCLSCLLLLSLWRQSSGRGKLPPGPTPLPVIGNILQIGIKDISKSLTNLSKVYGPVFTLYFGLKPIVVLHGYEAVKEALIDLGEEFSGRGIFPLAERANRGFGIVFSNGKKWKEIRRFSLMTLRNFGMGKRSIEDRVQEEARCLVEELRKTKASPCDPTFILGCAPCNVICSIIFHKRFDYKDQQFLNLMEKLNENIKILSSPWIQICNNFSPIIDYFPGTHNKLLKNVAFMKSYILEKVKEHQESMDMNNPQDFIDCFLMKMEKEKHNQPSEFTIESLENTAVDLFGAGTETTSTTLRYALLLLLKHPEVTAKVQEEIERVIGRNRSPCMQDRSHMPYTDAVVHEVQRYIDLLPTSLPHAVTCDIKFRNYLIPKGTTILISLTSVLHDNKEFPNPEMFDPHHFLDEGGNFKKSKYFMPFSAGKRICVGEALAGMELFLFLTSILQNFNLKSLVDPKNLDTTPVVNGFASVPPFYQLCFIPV

Chain of Luciferin 4-monooxygenase (P08659 whole entry): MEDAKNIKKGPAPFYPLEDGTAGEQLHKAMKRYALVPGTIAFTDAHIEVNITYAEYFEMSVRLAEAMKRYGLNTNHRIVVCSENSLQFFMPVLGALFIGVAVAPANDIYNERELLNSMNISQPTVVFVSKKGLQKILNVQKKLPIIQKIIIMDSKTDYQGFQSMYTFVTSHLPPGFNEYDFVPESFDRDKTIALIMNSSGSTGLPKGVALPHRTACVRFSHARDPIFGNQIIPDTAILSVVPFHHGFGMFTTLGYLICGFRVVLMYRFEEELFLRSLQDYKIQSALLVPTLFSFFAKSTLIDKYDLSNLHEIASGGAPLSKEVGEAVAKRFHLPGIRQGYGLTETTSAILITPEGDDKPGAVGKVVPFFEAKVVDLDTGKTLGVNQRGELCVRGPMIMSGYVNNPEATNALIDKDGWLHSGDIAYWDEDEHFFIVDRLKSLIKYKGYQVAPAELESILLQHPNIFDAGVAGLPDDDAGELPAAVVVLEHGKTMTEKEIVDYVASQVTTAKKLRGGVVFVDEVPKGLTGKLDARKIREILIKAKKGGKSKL

SMILES: O=C(COC(=O)c1cnc(O)nc1O)Nc1ccccc1Br
- EC50 [1]: > 112 µM (not active)
- EC50 [2]: > 112 µM (not active)

SMILES: Cc1ccc(NC(=O)CN2CCCC2c2cccn2C)c(Br)c1 (stereo unspecified)
- AC50 (HeLa): 52.2 µM (active)

SMILES: Cc1cccc(-n2ncc3c(N4CC(C)CC(C)C4)ncnc32)c1 (stereo unspecified)
- AC50 (HeLa): 163 µM (active)

SMILES: CCOC(=O)c1c(N)sc(C(=O)Nc2ccc3c(c2)OCO3)c1C
- EC50 [1]: 1.28 µM (active)
- EC50 [2]: 3.34 µM (active)

SMILES: Cc1ccc([N+](=O)[O-])cc1S(=O)(=O)Nc1ccc(O)c(Sc2nc[nH]n2)c1
- EC50 [3]: 9.8 µM (active)
- EC50 [4]: 9.83 µM (inconclusive)
- IC50 [5]: > 66 µM (inactive)
- IC50 [6]: > 66 µM (inactive)

SMILES: Cc1cc2cc(C#N)c(NCCN=C(S)NCCCN3CCOCC3)nc2cc1C
- EC50 [7]: 5.31 µM (active)

SMILES: COc1ccc(OC(=O)COc2ccc(C)cc2)cc1
- IC50 [8]: 30 µM (active)

SMILES: CC(Oc1ccc(Cl)cc1Cl)C(=O)Nc1ccc(O)cc1 (stereo unspecified)
- IC50 [8]: 38.4 µM (active)

SMILES: CN(c1ccc(C(=O)Nc2ccc3c(c2)OCO3)cc1)S(C)(=O)=O
- EC50 [1]: 26.3 µM (active)
- EC50 [2]: 6 µM (active)

SMILES: O=C(c1ccc(F)cc1)c1ccc(N2CCCCC2)cc1
- AC50 (HeLa): 57.7 µM (active)

SMILES: Nc1c(-c2ccc(Cl)cc2)cnn1-c1ccccc1
- AC50 (HeLa): 64.2 µM (active)

SMILES: Cc1occc1C(=O)O/N=C(\N)c1ccccc1
- EC50 [1]: 3.91 µM (active)
- EC50 [2]: 2.59 µM (active)

SMILES: CCc1nnc(NS(=O)(=O)c2ccc(NCc3ccccc3O)cc2)s1
- EC50 [1]: > 112 µM (not active)
- EC50 [2]: > 112 µM (not active)

SMILES: Oc1c(Br)cc(Br)cc1/C=N/c1ccc2[nH]ncc2c1
- EC50 [7]: 4.22 µM (active)

SMILES: OCCNc1nc(NCc2ccccc2)c2ccccc2n1
- EC50 [7]: 3.35 µM (active)

SMILES: CCCCN(C)C(=O)CCC(=O)NNc1nc2ccccc2c2nc(C)nn12
- EC50 [3]: > 300 µM (not active)
- EC50 [4]: 5.37 µM (active)

SMILES: Cc1cccc(C(=N)NOC(=O)c2ccc3c(c2)OCO3)c1
- EC50 [1]: 0.838 µM (active)
- EC50 [2]: 1.47 µM (active)

SMILES: Nc1c(Cl)cc(NC(=O)c2ccccc2C(=O)O)cc1Br
- IC50 [8]: 169 µM (active)

SMILES: COCCN1CCN(C(=O)c2ccc3nc(Cc4ccccc4F)oc3c2)CC1
- EC50 [1]: > 112 µM (not active)
- EC50 [2]: > 112 µM (not active)

SMILES: O=C(NNC(=O)c1ccccc1O)c1cccc(Br)c1
- EC50 [3]: 41 µM (active)
- EC50 [4]: 25.6 µM (active)

SMILES: CSCC(C)N1CCC(Oc2cccc(C(=O)NCc3ccccn3)c2)CC1 (stereo unspecified)
- EC50 [3]: 34.9 µM (active)
- EC50 [4]: 75.4 µM (active)
- IC50 [5]: 34.1 µM (inactive)
- IC50 [6]: 31.6 µM (inactive)

SMILES: Cc1ccc(-n2[nH]c(=O)c3cccnc32)cc1
- AC50 (Cytochrome P450 2C19): 25.1 µM (inconclusive)
- IC50 [8]: 95.2 µM (active)
- AC50 (Cytochrome P450 2C9): 28.2 µM (inconclusive)

SMILES: Cc1ccc(NC(=O)COC(=O)[C@H](C)NC(=O)c2ccccc2)cc1S(=O)(=O)N1CCOCC1
- EC50 [1]: > 112 µM (not active)
- EC50 [2]: > 112 µM (not active)

SMILES: CC(C)c1ccc(/C=C(\NC(=O)c2ccccc2)C(=O)NCCN2CCOCC2)cc1
- EC50 [3]: > 300 µM (not active)
- EC50 [4]: > 300 µM (not active)

SMILES: CC(C)=CCCC(C)CN1CCC(n2nccc2NC(=O)C2CCCC2)CC1 (stereo unspecified)
- EC50 [7]: 5.31 µM (active)

SMILES: CC(Oc1ccc(Cl)cc1Cl)c1nc(-c2ccccn2)no1 (stereo unspecified)
- EC50 [7]: 1.88 µM (active)

SMILES: CCCCNCc1cc(Cl)c(OCCC)c(OCC)c1
- EC50 [7]: 2.37 µM (active)

SMILES: COc1cc(C)c(NC(c2ccccc2)c2ccccc2)cc1OC
- IC50 [8]: 113 µM (active)

SMILES: CN1C(=O)NC(=O)/C(=C/c2ccc[nH]2)C1=O
- EC50 [3]: > 300 µM (not active)
- EC50 [4]: > 300 µM (not active)

SMILES: CCCc1ccc(-c2cc(C(=O)NCCc3ccc(S(N)(=O)=O)cc3)c3ccccc3n2)cc1
- AC50 (HeLa): 37.5 µM (active)

SMILES: COc1cc2c(cc1OC)-c1cc(Nc3cccc(F)c3)nc(=O)n1CC2
- EC50 [1]: > 112 µM (not active)
- EC50 [2]: 1.08 µM (active)

SMILES: NC(=O)c1nsc(C(=O)N(Cc2ccc(F)cc2)C(C(=O)NCC2CCCO2)c2ccc(O)cc2)c1N (stereo unspecified)
- EC50 [7]: 2.37 µM (active)

SMILES: Fc1ccc(-n2cc(CNCCc3ccncc3)c(-c3ccccc3Cl)n2)cc1
- EC50 [7]: 3.35 µM (active)

SMILES: CCCCN(CCCC)C(=N)Nc1nc(C)cc(C)n1
- EC50 [7]: 3.76 µM (active)

SMILES: Cc1nc(/C=C2\C(=O)Nc3ccccc32)c[nH]1
- EC50 [3]: > 300 µM (not active)
- EC50 [4]: > 300 µM (not active)

SMILES: COC(=O)c1c(C)[nH]c(C(=O)OCC(=O)N2c3ccccc3NC(=O)C2(C)C)c1C
- EC50 [1]: > 112 µM (not active)
- EC50 [2]: > 112 µM (not active)

SMILES: CN(C)C1=NC(=O)/C(=C/c2ccc(-c3ccc(S(N)(=O)=O)cc3)o2)S1
- EC50 [3]: > 300 µM (not active)
- EC50 [4]: > 300 µM (not active)
